Experimental data published in patent publication US20120259007A1, “ANTICOAGULANT COMPOUNDS AND THEIR USE” (HAOMA MEDICA LIMITED, priority 2009, published 2012).

Tested on: Mice
Experiment: Observed anticoagulant activity (bleeding) in treated mice
Assay type: in vivo
Conditions: single injection 15 μg/mouse/day intraperitoneally in 10% ethanol in saline
Protocol: Mice were treated with one compound of the present invention (4E)-6-(1,4-dihydro-2-methyl-1,4-dioxonaphthalen-3-yl)-4-methylhex-4-enoic acid (VIII) [also called NaQuinate herein] in the form of a single injection (15 μg/mouse/day) administered in 10% ethanol in saline injections intraperitoneally. Control mice received the carrier but not the NaQuinate active component.

| Compound | bleeding compared with mice not treated (anticoagulant effect) |
| --- | --- |
| CC1=C(C/C=C(\C)CCC(=O)O)C(=O)c2ccccc2C1=O [NaQuinate (VIII), (4E)-6-(1,4-dihydro-2-methyl-1,4-dioxonaphthalen-3-yl)-4-methylhex-4-enoic acid] | bleed out much more profusely |

Target: T1, recombinant human γ-carboxylase (Homo sapiens, UniProt P38435)
T1 construct: made in house; host or cells: Trichoplusia ni High Five cells (microsomes)
T1 sequence (P38435 1-758): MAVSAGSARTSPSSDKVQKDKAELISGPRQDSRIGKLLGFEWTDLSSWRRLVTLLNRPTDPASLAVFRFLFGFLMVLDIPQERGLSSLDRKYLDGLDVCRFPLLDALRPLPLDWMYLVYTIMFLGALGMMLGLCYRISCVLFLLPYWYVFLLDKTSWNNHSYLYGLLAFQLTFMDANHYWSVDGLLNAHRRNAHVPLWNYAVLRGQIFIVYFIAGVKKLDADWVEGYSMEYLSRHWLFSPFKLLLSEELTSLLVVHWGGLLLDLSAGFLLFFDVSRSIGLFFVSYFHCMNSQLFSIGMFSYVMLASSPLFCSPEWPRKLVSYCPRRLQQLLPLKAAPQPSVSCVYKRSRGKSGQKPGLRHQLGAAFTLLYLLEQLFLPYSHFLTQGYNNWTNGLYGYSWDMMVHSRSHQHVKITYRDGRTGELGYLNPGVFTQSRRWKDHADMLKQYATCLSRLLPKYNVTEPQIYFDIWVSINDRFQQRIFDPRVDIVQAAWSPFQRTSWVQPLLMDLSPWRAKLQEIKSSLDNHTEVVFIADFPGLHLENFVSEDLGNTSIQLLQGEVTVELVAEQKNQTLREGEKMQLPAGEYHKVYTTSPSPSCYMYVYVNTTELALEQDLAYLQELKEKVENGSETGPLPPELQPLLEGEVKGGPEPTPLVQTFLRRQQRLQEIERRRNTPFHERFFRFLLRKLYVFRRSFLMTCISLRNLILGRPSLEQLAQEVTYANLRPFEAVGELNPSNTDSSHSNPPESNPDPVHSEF
Experiment: Inhibition of recombinant human gamma-carboxylase (14CO2 incorporation, microsomes from High Five cells)
Assay type: biochemical
Conditions: in the presence of 220 μM vitamin K1 hydroquinone; compounds reduced to hydroquinone forms; n=1; read-out: IC50 against 220 μM vitamin K1
Protocol: The compounds to be tested were reduced to their hydroquinone forms by the addition of 0.2 M DTT to a solution of the compounds in DMSO (giving a final v/v ratio of 1:3 DTT:DMSO) and overnight incubation in a water bath (37° C.).
In this assay a different microsomal preparation was used than the one described above. This microsomal preparation consists of microsomes prepared from Trichoplusia ni High Five cells that had had the cDNA for the human γ-carboxylase incorporated into their DNA. These microsomes were taken from stores that had been prepared as described by Houben, R. J., D. Jin, et al. (1999). “Osteocalcin binds tightly to the gamma-glutamylcarboxylase at a site distinct from that of the other known vitamin K-dependent proteins.” Biochem J 341 (Pt 2): 265-9.
Standard reaction mixtures contained 5 μl of microsomal preparation, 5 μl of 500 μM decarboxylated osteocalcin (d-OC) (except for the negative control tube), 25 μl of saturated ammonium sulphate solution, 5 μl of 5% PC/CHAPS. In addition to this, 1:3 (v/v) DMSO: 0.2 M DTT was added to the tubes (to take into account the fact that the compounds were dissolved in 1:3 DMSO: 0.2 M DTT) to give a total volume of 40 μl DMSO: 0.2 M DTT per tube. A solution of Buffer D was added to give all final tubes a uniform volume of 125 μl. The experiment was initiated by the addition of 10 μl of a 1:1 (v/v) mixture of vitamin K hydroquinone (final concentration of 220 μM) and NaH^14CO3 (final radioactivity of 5 μCi) to each tube, followed by a range of concentrations of the compounds.

| Compound | IC50 [µM] |
| --- | --- |
| CC1=C(C/C=C(\C)C(=O)O)C(=O)c2ccccc2C1=O [KCAT-5C (XIV), (2E)-4-(1,4-dihydro-2-methyl-1,4-dioxonaphthalen-3-yl)-2-methylbut-2-enoic acid] | 340 |
| COC(=O)C(C)CCC1=C(C)C(=O)c2ccccc2C1=O (stereo not shown) [KCAT-5C-Me (XIX)] | 514 |
| CC1=C(C/C=C(\C)CCC(=O)O)C(=O)c2ccccc2C1=O [NaQuinate (VIII), (4E)-6-(1,4-dihydro-2-methyl-1,4-dioxonaphthalen-3-yl)-4-methylhex-4-enoic acid] | 152 |

Further lines, results first:

| IC50 [µM] | Compound |
| --- | --- |
| 358 | COC(=O)CCC(C)=CCC1=C(C)C(=O)c2ccccc2C1=O [NaQuinate-Me (VII)] |
| 534 | COC(=O)CC/C(C)=C/CC1=C(C)C(=O)C(OC)=C(OC)C1=O [QCAT-Me (XVIII)] |
| 460 | CC1=CC(=O)c2ccccc2C1=O [Vitamin K3 (III), menadione, reference compound] |
